# Experimental data published in patent US20240238232A1, “COMPOSITIONS AND METHODS FOR THE REDUCTION OR TREATMENT OF INSULIN RESISTANCE AND METABOLIC CONDITIONS” (AXCELLA HEALTH INC., priority 2018, published 2024).
# Several values for one entry are separate records, joined by “and”; a condition that tells them apart may be missing. Equal entries are not always repeated.
# How the values were obtained:
# [1] = test system: α-smooth muscle actin (αSMA), activated hepatic stellate cells; test: α-smooth muscle actin staining of liver sections (activated hepatic stellate cells) in STAM mice, Example 2; format: in vivo, mouse; settings: A-1 1500 mg/kg twice daily, OCA 30 mg/kg once daily
# Procedure: Amino Acid Composition A-1 and Obeticholic acid (6α-ethyl-chenodeoxycholic acid; “OCA”) were tested for their ability to treat NASH in the STAM™ model (Stelic Institute & Co., Tokyo, Japan; Saito K. et al., 2015 Sci Rep 5:12466). Two additional groups of normal C57BL/6 mice fed standard chow and vehicle treated STAM™ mice were included as controls. All animals receiving treatment or vehicle were treated starting at 6 weeks until 9 weeks of age. Compounds were administered via oral gavage, with a dose volume of 10 ml/kg. Amino Acid Composition A-1 was administered twice daily at a dose of 1500 mg/kg, and OCA was administered once daily at a dose of 30 mg/kg.
# Amino Acid Composition A-1, OCA and Vehicle (described below) were administered by oral route in a volume of 10 mL/kg. Amino Acid Composition A-1 was solubilized in deionized water to 150 mg/ml (10 X). OCA (Advanced ChemBlocks Inc.) was resuspended in 0.5% methycellulose in water to 3 mg/ml (10 X). Amino Acid Composition A-1 was administered at a dose of 1500 mg/kg twice daily (9 am and 7 pm). OCA was administered at a dose of 30 mg/kg once daily (9 am).
# Liver sections of all mice were stained for the marker α-smooth muscle actin (αSMA) to identify activated hepatic stellate cells. Images were quantified using the percent of positively stained area was used as a measure of stellate cell activation. […]
# FATZO mouse model = test: Liver Oil Red O staining area in FATZO mice on WDF, Example 5; format: in vivo; settings: oral, 4 weeks, LIVRQNAC + G 3885 mg/kg, LRQNAC 2469 mg/kg, OCA 30 mg/kg/day
# Description: NASH was induced in 60 male FATZO mice by a western diet (Research Diet #D12079B; fat 40% kcal, protein 17% kcal, carbohydrate 43% kcal) supplemented with 500 fructose in the drinking water (WDF) during a 16 week induction phase. Diets and water were available ad libitum. Littermate control male FATZO mice fed with a control diet (n=6, Purina #5008; fat 17% kcal, protein 27% kcal, carbohydrate 56% kcal) and sterile water were set up for control purpose. Mice were housed in plastic cages with microisolator. Sterilized bedding was replaced once a week. Mice were housed three per cage and maintained on a twelve hour light cycle throughout study duration. Room temperature was monitored daily and maintained at 22-25° C. Body weight was recorded every week during the induction phase. […]
# […], […]+G, LRQNAC, OCA and Vehicle were administered by oral gavage at a volume of 10 mL/kg throughout the study. Dosages were calculated by daily body weight. […]
# Aperio Automatic Image Quantitation was employed to quantify positive pixels of immunohistochemical staining, Oil-Red 0, and Sirius Red staining. The Positive Pixel Count algorithm was used to quantify the percentage of a specific stain present in a scanned slide image. A range of color (range of hues and saturation) and three intensity ranges (weak, positive, and strong) were masked and evaluated. […]
smiles,measurement,setting,value
"CC[C@H]1[C@@H](O)[C@@H]2[C@H](CC[C@]3(C)[C@@H]([C@H](C)CCC(=O)O)CC[C@@H]23)[C@@]2(C)CC[C@@H](O)C[C@@H]12 [OCA, 6α-ethyl-chenodeoxycholic acid]","Activated hepatic stellate cells (mean positively stained area, α-smooth muscle actin)","[1]; STAM mice, oral, 6 to 9 weeks of age",1.562+/−0.31% and 1.562%
same,"Activated hepatic stellate cells (positively stained area, α-smooth muscle actin): raw data",[1]; individual STAM mice,1.51% and 1.49% (2×) and 1.17% and 1.13% and 2.03% and 1.87% and 1.97% and 1.46%
same,Oil Red O (staining area),FATZO mouse model,0.24 ± 0.021
